Tested on: human plasma rich in platelet
Experiment: Platelet coagulation-inhibitory activity in vitro (aggregometer, ADP or collagen stimulation)
Type: cell-based
Experimental: The platelet coagulation-inhibitory effect of the compounds of the present invention was assayed, in vitro, using human plasma rich in platelet. The experimental method will be described below.
To fresh human blood, there was added 1/9 volume of a 3.8% sodium citrate solution, the resulting mixture was centrifuged (1000 rpm; for 10 minutes) and the upper layer was separated as a plasma rich in platelet. The propenamide derivatives, the polymers thereof, the copolymers thereof or salts thereof obtained through lyophilization were dissolved in physiological saline to give a plurality of solutions having various concentrations ranging from 0 to 1.5 mg/ml. Each of the solutions (25 μl) was added to 200 μl of the plasma, incubated at 37° C. for 3 minutes, then a 50 μM of ADP (adenosine diphosphate) solution or a 200 μg/ml collagen solution was added to determine the extent of coagulation in terms of transmittance determined by an aggregometer.
Rate of Coagulation Inhibition=(1-T/T0)×100%
T0 : Transmittance observed when the propenamide derivatives, the polymers thereof, the copolymers thereof or salts thereof were not added.
T: Transmittance observed when the propenamide derivatives, the polymers thereof, the copolymers thereof or salts thereof were added.

Question: Which “Platelet Coagulation-Inhibitory Activity IC50 ADP Stimulation” value (ADP Stimulation) does the source give for “trimethylammonioethyl methacrylamide [Preparation product 14]” here?
Answer: The value was “C (more than 80)”.

Question: What about the “Platelet Coagulation-Inhibitory Activity IC50 Collagen Stimulation” value (Collagen Stimulation) of the same substance?
Answer: Its value is “C (more than 80)”.
